# According to ChEMBL document CHEMBL3885881, “DrugMatrix”:
# Species on record: Rattus norvegicus
# Test: DrugMatrix - Regimen: Daily Repeat
# Type: toxicity, organism-based, Sprague-Dawley
# Design: regimen Daily Repeat, gender Male, age 6-8 weeks
# Settings: in vivo, po, route oral GAVAGE, […]; for ABSOLUTE BASOPHIL / ABSOLUTE EOSINOPHIL / ABSOLUTE LYMPHOCYTE / ABSOLUTE MONOCYTE / ABSOLUTE SEGMENTED NEUTROPHIL / BASOPHIL / EOSINOPHIL / HEMATOCRIT / HEMOGLOBIN / LEUKOCYTE COUNT / LYMPHOCYTE / MEAN CORPUSCULAR HEMOGLOBIN / MEAN CORPUSCULAR HEMOGLOBIN CONCENTRATION / MEAN CORPUSCULAR VOLUME / MONOCYTE / NEUTROPHIL / NUCLEATED RED BLOOD CELLS / PLATELET COUNT: tissue Blood; for ALANINE AMINOTRANSFERASE / ALBUMIN / ALKALINE PHOSPHATASE / ASPARTATE AMINOTRANSFERASE / BLOOD UREA NITROGEN / CARBON DIOXIDE / CHLORIDE / CHOLESTEROL / CREATINE PHOSPHOKINASE / CREATININE / GLUCOSE / LACTATE DEHYDROGENASE / LIPASE / PHOSPHORUS / POTASSIUM / SODIUM / TOTAL BILIRUBIN / TOTAL PROTEIN / URIC ACID: tissue Plasma
# [1] = 1 mg/kg, 72 h, dose level Low, time 3 day
# [2] = 1 mg/kg, 120 h, dose level Low, time 5 day
# [3] = 21 mg/kg, 72 h, dose level High, time 3 day
# [4] = 21 mg/kg, 120 h, dose level High, time 5 day
smiles,measurement,setting,value
O=C(CCCN1CCC(O)(c2ccc(Cl)cc2)CC1)c1ccc(F)cc1 [HALOPERIDOL],ABSOLUTE BASOPHIL,[1],0 CELLS/uL
same,ABSOLUTE EOSINOPHIL,[1],94.33 CELLS/uL
same,ABSOLUTE LYMPHOCYTE,[1],11131.67 CELLS/uL
same,ABSOLUTE MONOCYTE,[1],120.67 CELLS/uL
same,ABSOLUTE SEGMENTED NEUTROPHIL,[1],1053.33 CELLS/uL
same,BASOPHIL,[1],0%
same,EOSINOPHIL,[1],0.67%
same,HEMATOCRIT,[1],33.6%
same,HEMOGLOBIN,[1],13.7 G/DL
same,LEUKOCYTE COUNT,[1],12.4 x10E3/uL
same,LYMPHOCYTE,[1],88.33%
same,MEAN CORPUSCULAR HEMOGLOBIN,[1],25.53 pg
same,MEAN CORPUSCULAR HEMOGLOBIN CONCENTRATION,[1],40.8 G/DL
same,MEAN CORPUSCULAR VOLUME,[1],62.6 fL
same,MONOCYTE,[1],1%
same,NEUTROPHIL,[1],10%
same,NUCLEATED RED BLOOD CELLS,[1],0 /100WBC
same,PLATELET COUNT,[1],969 x10E3/uL
same,ALANINE AMINOTRANSFERASE,[1],88.67 u/L
same,ALBUMIN,[1],3.97 G/DL
same,ALKALINE PHOSPHATASE,[1],450 u/L
same,ASPARTATE AMINOTRANSFERASE,[1],97.33 u/L
same,BLOOD UREA NITROGEN,[1],12.33 mg/dL
same,CARBON DIOXIDE,[1],31.67 mmol/L
same,CHLORIDE,[1],97 MEQ/L
same,CHOLESTEROL,[1],75.67 mg/dL
same,CREATINE PHOSPHOKINASE,[1],318.67 u/L
same,CREATININE,[1],0.13 mg/dL
same,GLUCOSE,[1],163.67 mg/dL
same,LACTATE DEHYDROGENASE,[1],170 u/L
same,LIPASE,[1],15 u/L
same,PHOSPHORUS,[1],11.33 mg/dL
same,POTASSIUM,[1],6.08 MEQ/L
same,SODIUM,[1],142.45 MEQ/L
same,TOTAL BILIRUBIN,[1],0.17 mg/dL
same,TOTAL PROTEIN,[1],5.67 G/DL
same,URIC ACID,[1],1 mg/dL
same,ABSOLUTE BASOPHIL,[2],0 CELLS/uL
same,ABSOLUTE EOSINOPHIL,[2],0 CELLS/uL
same,ABSOLUTE LYMPHOCYTE,[2],12900 CELLS/uL
same,ABSOLUTE MONOCYTE,[2],131.67 CELLS/uL
same,ABSOLUTE SEGMENTED NEUTROPHIL,[2],1068.33 CELLS/uL
same,BASOPHIL,[2],0%
same,EOSINOPHIL,[2],0%
same,HEMATOCRIT,[2],34.63%
same,HEMOGLOBIN,[2],14.03 G/DL
same,LEUKOCYTE COUNT,[2],14.1 x10E3/uL
same,LYMPHOCYTE,[2],91.67%
same,MEAN CORPUSCULAR HEMOGLOBIN,[2],25.73 pg
same,MEAN CORPUSCULAR HEMOGLOBIN CONCENTRATION,[2],40.5 G/DL
same,MEAN CORPUSCULAR VOLUME,[2],63.57 fL
same,MONOCYTE,[2],1%
same,NEUTROPHIL,[2],7.33%
same,NUCLEATED RED BLOOD CELLS,[2],0 /100WBC
same,PLATELET COUNT,[2],1083 x10E3/uL
same,ALANINE AMINOTRANSFERASE,[2],51 u/L
same,ALBUMIN,[2],4.17 G/DL
same,ALKALINE PHOSPHATASE,[2],383.33 u/L
same,ASPARTATE AMINOTRANSFERASE,[2],81.33 u/L
same,BLOOD UREA NITROGEN,[2],16.33 mg/dL
same,CARBON DIOXIDE,[2],25.67 mmol/L
same,CHLORIDE,[2],102 MEQ/L
same,CHOLESTEROL,[2],77.33 mg/dL
same,CREATINE PHOSPHOKINASE,[2],323.67 u/L
same,CREATININE,[2],0.18 mg/dL
same,GLUCOSE,[2],144 mg/dL
same,LACTATE DEHYDROGENASE,[2],223.33 u/L
same,LIPASE,[2],11.33 u/L
same,PHOSPHORUS,[2],10.8 mg/dL
same,POTASSIUM,[2],6.15 MEQ/L
same,SODIUM,[2],143.13 MEQ/L
same,TOTAL BILIRUBIN,[2],0.17 mg/dL
same,TOTAL PROTEIN,[2],5.77 G/DL
same,URIC ACID,[2],1.17 mg/dL
same,ABSOLUTE BASOPHIL,[3],0 CELLS/uL
same,ABSOLUTE EOSINOPHIL,[3],71.67 CELLS/uL
same,ABSOLUTE LYMPHOCYTE,[3],13503.67 CELLS/uL
same,ABSOLUTE MONOCYTE,[3],143.33 CELLS/uL
same,ABSOLUTE SEGMENTED NEUTROPHIL,[3],1014.67 CELLS/uL
same,BASOPHIL,[3],0%
same,EOSINOPHIL,[3],0.33%
same,HEMATOCRIT,[3],37.23%
same,HEMOGLOBIN,[3],14.77 G/DL
same,LEUKOCYTE COUNT,[3],14.73 x10E3/uL
same,LYMPHOCYTE,[3],92.33%
same,MEAN CORPUSCULAR HEMOGLOBIN,[3],23.97 pg
same,MEAN CORPUSCULAR HEMOGLOBIN CONCENTRATION,[3],39.67 G/DL
same,MEAN CORPUSCULAR VOLUME,[3],60.4 fL
same,MONOCYTE,[3],0.67%
same,NEUTROPHIL,[3],6.67%
same,NUCLEATED RED BLOOD CELLS,[3],0 /100WBC
same,PLATELET COUNT,[3],1422.33 x10E3/uL
same,ALANINE AMINOTRANSFERASE,[3],42.33 u/L
same,ALBUMIN,[3],4.2 G/DL
same,ALKALINE PHOSPHATASE,[3],358.33 u/L
same,ASPARTATE AMINOTRANSFERASE,[3],92.33 u/L
same,BLOOD UREA NITROGEN,[3],16.33 mg/dL
same,CARBON DIOXIDE,[3],22.67 mmol/L
same,CHLORIDE,[3],103.67 MEQ/L
same,CHOLESTEROL,[3],58 mg/dL
same,CREATINE PHOSPHOKINASE,[3],803 u/L
same,CREATININE,[3],0.18 mg/dL
same,GLUCOSE,[3],168 mg/dL
same,LACTATE DEHYDROGENASE,[3],310 u/L
same,LIPASE,[3],11.33 u/L
same,PHOSPHORUS,[3],12.4 mg/dL
same,POTASSIUM,[3],6.38 MEQ/L
same,SODIUM,[3],143.4 MEQ/L
same,TOTAL BILIRUBIN,[3],0.13 mg/dL
same,TOTAL PROTEIN,[3],5.9 G/DL
same,URIC ACID,[3],2.07 mg/dL
same,ABSOLUTE BASOPHIL,[4],0 CELLS/uL
same,ABSOLUTE EOSINOPHIL,[4],46.33 CELLS/uL
same,ABSOLUTE LYMPHOCYTE,[4],13529.67 CELLS/uL
same,ABSOLUTE MONOCYTE,[4],94 CELLS/uL
same,ABSOLUTE SEGMENTED NEUTROPHIL,[4],1530 CELLS/uL
same,BASOPHIL,[4],0%
same,EOSINOPHIL,[4],0.33%
same,HEMATOCRIT,[4],35.97%
same,HEMOGLOBIN,[4],14.07 G/DL
same,LEUKOCYTE COUNT,[4],15.2 x10E3/uL
same,LYMPHOCYTE,[4],88.67%
same,MEAN CORPUSCULAR HEMOGLOBIN,[4],23.57 pg
same,MEAN CORPUSCULAR HEMOGLOBIN CONCENTRATION,[4],39.13 G/DL
same,MEAN CORPUSCULAR VOLUME,[4],60.3 fL
same,MONOCYTE,[4],0.67%
same,NEUTROPHIL,[4],10.33%
same,NUCLEATED RED BLOOD CELLS,[4],0.33 /100WBC
same,PLATELET COUNT,[4],1209.33 x10E3/uL
same,ALANINE AMINOTRANSFERASE,[4],53 u/L
same,ALBUMIN,[4],4.13 G/DL
same,ALKALINE PHOSPHATASE,[4],352.33 u/L
same,ASPARTATE AMINOTRANSFERASE,[4],80.33 u/L
same,BLOOD UREA NITROGEN,[4],17.33 mg/dL
same,CARBON DIOXIDE,[4],23 mmol/L
same,CHLORIDE,[4],103.33 MEQ/L
same,CHOLESTEROL,[4],69 mg/dL
same,CREATINE PHOSPHOKINASE,[4],224.67 u/L
same,CREATININE,[4],0.18 mg/dL
same,GLUCOSE,[4],201.67 mg/dL
same,LACTATE DEHYDROGENASE,[4],239 u/L
same,LIPASE,[4],11.33 u/L
same,PHOSPHORUS,[4],11.33 mg/dL
same,POTASSIUM,[4],6.19 MEQ/L
same,SODIUM,[4],143.37 MEQ/L
same,TOTAL BILIRUBIN,[4],0.2 mg/dL
same,TOTAL PROTEIN,[4],5.63 G/DL
same,URIC ACID,[4],1.4 mg/dL
